Where two headings read alike, the source gives them in different places.
Legend:
[1] = tested on: patients with glaucoma or ocular hypertension; conditions: cited from earlier work
[2] = non-human primate, after single or multiple topical bimatoprost dosing; cited from earlier work
[3] = tested on: bulbar conjunctiva of patients; conditions: bimatoprost 0.03% q.d. for 60 days; biopsies at day 7 and impression cytology; cited from earlier work
[4] = tested on: palpebral conjunctiva of Beagle dogs; conditions: n = 6 per group, left eye, cited from earlier work
[5] = tested on: conjunctiva of patients with primary open-angle glaucoma; conditions: cited from earlier work
[6] = tested on: rabbit isolated jugular veins; assay: Vasorelaxation in histamine-precontracted rabbit isolated jugular veins; format: cell-based
From the text: FIG. 3. Concentration-response curves for (FIG. 3A) bimatoprost and (FIG. 3B) latanoprost free acid in histamine-precontracted endothelium-intact and endothelium-denuded rabbit isolated jugular veins. Results are expressed as mean±S.E.M. of 5-6 animals. FIG. 3A adapted from Chen J et al., Invest Ophthalmol Vis Sci 2004; 45:ARVO E-Abstract 2609; FIG. 3B extends results reported in Chen J et al., Invest Ophthalmol Vis Sci 2004; 45:ARVO E-Abstract 2609; and Pharmacology Review of New Drug Application 21-275. FDA/Center for Drug Evaluation and Research. 2001;Part 1 and Part 2:1-107. Available online at http://www.fda.gov/cder/foi/nda/2001/21275_Lumigan.htm.
FIG. 4. Concentration-response curves for (FIG. 4A) bimatoprost and (FIG. 4B) latanoprost free acid in the presence or absence of indomethacin in endothelium-intact rabbit isolated jugular veins. Results are expressed as mean±S.E.M. of 7 animals and extend previous results reported in Pharmacology Review of New Drug Application 21-275. FDA/Center for Drug Evaluation and Research. 2001;Part 1 and Part 2:1-107. Available online at http://www.fda.gov/cder/foi/nda/2001/21275_Lumigan.htm.
FIG. 5. Concentration-response curves for (FIG. 5A) bimatoprost and (FIG. 5B) latanoprost free acid in the presence of 100 μM L-NAME or 100 (μM D-NAME control in endothelium-intact rabbit isolated jugular veins. Results are expressed as mean±S.E.M. of 6 animals. *P≦0.05, compared to responses in D-NAME pretreated tissues at the same concentration, paired t-test.
The pharmacological mechanism of ocular surface hyperemia elicited by bimatoprost and latanoprost was investigated using the rabbit jugular vein preparation as a quantitative in vitro model (Chen J. et al., Br J Pharmacol 1995; 116:3035-3041). In these studies, tissues were suspended in jacketed organ baths containing Krebs buffer with 1 μM indomethacin (endothelium-intact and -denuded) or in its absence (endothelium-intact) and precontracted with 3 μM histamine. Vasorelaxant and contractile activity were determined as a percentage (%) of the control tone elicited by histamine. Statistical comparisons for the vasorelaxant activity consisted of testing for significance of difference at each of the concentrations tested using the Student'-s t-test for unpaired samples (indomethacin vs no indomethacin) and paired samples (L-NAME vs D-NAME). Differences were considered statistically significant for P-values ≦0.05.
Indomethacin is a cyclooxygenase inhibitor that is routinely used in prostanoid receptor assays (Chen J et al., Current protocols in pharmacology. New York: John Wiley & Sons, Inc., 2001; 4.18.1-4.18.41). Studies of intact and viable isolated tissues, such as the rabbit jejunum (Ferreira S H, Herman A G, Vane J R., Br J Pharmacol 1976; 56:469-477) and human bronchial muscle (Haye-Legrand I, Cerrina J, Raffestin B et al., J Pharmacol Exp Ther 1986; 239:536-541), found the basal output of prostaglandins to be 8-23 pg/mg of tissue at baseline or over 30 min collection periods. In the presence of 1.7 and 2.79 μM indomethacin, the amounts of prostaglandins generated in isolated tissues become negligible (Botting J H, Salzmann R., Br J Pharmacol 1974; 50:119-124; Haye-Legrand I, Cerrina J, Raffestin B et al., J Pharmacol Exp Ther 1986; 239:536-541). The 1 μM concentration of indomethacin in the tissue bath, in our experience, is sufficient to prevent biosynthesis of prostanoids within isolated vascular tissue preparations (Alster P, Wennmalm Å., Eur J Pharmacol 1983; 86:441-446; Chen J et al., Current protocols in pharmacology. New York: John Wiley & Sons, Inc., 2001; 4.18.1-4.18.41). At substantially higher concentrations, indomethacin has been reported to lose selectivity for prostanoid biosynthesis inhibition (Aboulafia J et al., Br J Pharmacol 1976; 58:223-228; Goodfriend T L, Simpson R U., Br J Pharmacol 1981; 72:247-255; Northover B J, Br J Pharmacol 1971; 41:540-551; Sawdy R et al., Br J Pharmacol 1998; 125:1212-1217). […]

[7] = tested on: lower palpebral conjunctiva of rabbits, dogs, and non-human primates; conditions: cited from earlier work
[8] = tested on: palpebral conjunctiva of Cynomolgus monkeys; conditions: cited from earlier work
[9] = tested on: palpebral conjunctiva of Dutch-Belted (pigmented) rabbits; conditions: left eye, Bimatoprost 0.03% b.i.d. one month, n = 19; cited from earlier work
[10] = tested on: human cultured conjunctiva-derived epithelial cells; conditions: cited from earlier work
[11] = tested on: rabbit isolated jugular veins; conditions: cited from earlier work
[12] = bimatoprost 0.001% q.i.d. topical ocular for one month
[13] = bimatoprost 0.01% q.i.d. topical ocular for one month
[14] = bimatoprost 0.1% q.i.d. topical ocular for one month

For `CCNC(=O)CCC/C=C\C[C@@H]1[C@@H](/C=C/[C@@H](O)CCc2ccccc2)[C@H](O)C[C@@H]1O` [Bimatoprost, bimatoprost], which “mean laser-flare photometry readings and mean changes from baseline” value ([1]; 1 year, bimatoprost 0.03% once or twice daily, timolol maleate 0.5% twice daily, subset of 310 patients) is on record?
The value was “no significant differences among the treatment groups”.

And the safety and tolerability ([1]; study extension to 2 years)?
The safety and tolerability was “safe and well-tolerated”.

What about the “concentrations found in ocular surface tissues” value [2] of the same molecule?
The value was 10^−6-10^−5 molar equivalent.

What about the evidence of inflammation [3] of the same molecule?
The evidence of inflammation was “no evidence of inflammation”.

And the “Incidence of minimal-to-mild mononuclear cell infiltration in palpebral conjunctiva (number of animals with histopathologic findings), Lower Eyelid” value [4, 12]?
The value was 3.

What about the “Incidence of minimal-to-mild mononuclear cell infiltration in palpebral conjunctiva (number of animals with histopathologic findings), Upper Eyelid” value [4, 12] of the same molecule?
The value was 4.

What about the “Incidence of minimal-to-mild mononuclear cell infiltration in palpebral conjunctiva (number of animals with histopathologic findings), Lower Eyelid” value [4, 13] of the same molecule?
The value was 5.

What about the “Incidence of minimal-to-mild mononuclear cell infiltration in palpebral conjunctiva (number of animals with histopathologic findings), Upper Eyelid” value [4, 13] of the same molecule?
Its value is 3.

And the “Incidence of minimal-to-mild mononuclear cell infiltration in palpebral conjunctiva (number of animals with histopathologic findings), Lower Eyelid” value [4, 14]?
Its value is 6.

And the “Incidence of minimal-to-mild mononuclear cell infiltration in palpebral conjunctiva (number of animals with histopathologic findings), Upper Eyelid” value [4, 14]?
Its value is 5.

And the “eyes with signs of inflammatory cell margination or infiltration” value ([5]; bimatoprost 0.03% q.d. 2 to 4 weeks, eyes with hyperemia (2/9))?
Its value is 22%.

And the “eyes with vascular congestion” value ([5]; bimatoprost 0.03% q.d. 2 to 4 weeks, eyes with hyperemia (7/9))?
Its value is 78%.

And the “eyes that developed conjunctival hyperemia” value ([5]; bimatoprost 0.03% q.d. for 2 to 4 weeks)?
Its value is “Nine of 13”.

And the “vasorelaxant response in presence of 100 μM L-NAME compared to 100 μM D-NAME control” value ([6]; endothelium-intact histamine precontracted tissues, P≦0.05 paired t-test)?
The value was “significantly inhibited”.

What about the “difference in effects with and without 1 μM indomethacin” value ([6]; endothelium-intact tissues, each concentration tested) of the same molecule?
Its value is “no statistically significant differences”.

What about the “Incidence of inflammatory infiltrates above background, lower palpebral conjunctiva: number of animals with histopathologic findings (per total number of animals)” value ([7]; Dogs, Beagle, 1 month, 0.1% q.i.d. topical) of the same molecule?
The value was 0 (6).

And the “Incidence of inflammatory infiltrates above background, lower palpebral conjunctiva: number of animals with histopathologic findings (per total number of animals)” value ([7]; Monkeys, Cynomolgus, 12 months, 0.1% b.i.d. topical)?
Its value is 0 (60).

And the “Incidence of inflammatory infiltrates above background, lower palpebral conjunctiva: number of animals with histopathologic findings (per total number of animals)” value ([7]; Rabbits, Dutch-Belted, 1 month, 0.03% b.i.d. topical)?
Its value is 0 (19).

What about the “Incidence of inflammatory infiltrates above background, lower palpebral conjunctiva: number of animals with histopathologic findings (per total number of animals)” value ([7]; Rabbits, Dutch-Belted, 6 months, 0.1% b.i.d. topical) of the same molecule?
The value was 1 (20).

And the “Incidence of inflammatory infiltrates above background, lower palpebral conjunctiva: number of animals with histopathologic findings (per total number of animals)” value ([7]; Rabbits, New Zealand White, 1 month, 0.1% q.i.d. topical)?
Its value is 0 (16).

What about the “compound-related findings in eyes of the animal species” value ([7]; multiple subclinical, clinical, and exaggerated doses) of the same molecule?
Its value is “No compound-related findings of corneal toxicity, discomfort or irritation, or histopathological changes”.

And the “in-life evaluations: treatment-related ocular surface inflammation” value ([7]; periods of up to one year exposure)?
Its value is “no treatment-related ocular surface inflammation”.

What about the “Incidence of inflammation in palpebral conjunctiva (number of animals with histopathologic findings), Upper Eyelid, Chronic active” value ([8]; n = 6, right eye, bimatoprost 0.03% b.i.d. for 12 months) of the same molecule?
The value was 5.

What about the “Incidence of inflammation in palpebral conjunctiva (number of animals with histopathologic findings), Upper Eyelid, Chronic active” value ([8]; n = 6, right eye, bimatoprost 0.1% b.i.d. for 12 months) of the same molecule?
The value was 3.

What about the “Incidence of inflammation in palpebral conjunctiva (number of animals with histopathologic findings), Upper Eyelid, Chronic active” value ([8]; n = 8, right eye, bimatoprost 0.03% q.d. for 12 months) of the same molecule?
The value was 4.

What about the “Incidence of mononuclear cell infiltration in palpebral conjunctiva, Lower Eyelid, Minimal/mild” value [9] of the same molecule?
The value was 12 number of animals.

And the “Incidence of mononuclear cell infiltration in palpebral conjunctiva, Lower Eyelid, Moderate” value [9]?
Its value is 0 number of animals.

And the “Incidence of mononuclear cell infiltration in palpebral conjunctiva, Upper Eyelid, Minimal/mild” value [9]?
The value was 6 number of animals.

And the “direct stimulation of inflammatory pathways involving adhesion molecules or class II antigens” value ([10]; in vitro)?
The value was “None of the drugs appeared to induce direct stimulation of inflammatory pathways”.

And the toxicity observed ([10]; primarily related to the concentration of benzalkonium chloride)?
Its toxicity observed is “mild”.

And the “response in the endothelium-denuded preparation” value ([11]; endothelium-denuded, histamine precontracted, bimatoprost)?
The value was “inactive”.

And the EC50 ([11]; endothelium-intact jugular veins, 3 μM histamine precontracted, read-out: vasorelaxant response EC50)?
The EC50 was 3.98 µM.
